Experimental data reported in US4149007A, “C14 Phenyl-substituted derivatives of prostaglandin analogues” (Miles Laboratories, Inc., priority 1977, dated 1979).

Tests used:
adrenal glands = settings: hypophysectomized rats; cited from earlier work
[1] = variety of mammals; cited from earlier work
rat uterus = assay: Effects on the rat uterus in vitro; type: cell-based; settings: dose producing response 50% that of carbachol
Method: (B) effect on the rat uterus in vitro;
The uterine stimulant effect of test compounds was determined in segments of uterus obtained from rats (140-160 g) pretreated subcutaneously with 1 mg/kg of diethylstilbesterol 18 hours before the experiment. The tissues were placed in 10 ml chambers filled with de-Jalon solution at 29° C., were aerated and bubbled with 95% O2 and 5% CO2, and were prepared for isometric recording with force displacement transducers. Preparations were stretched to an initial tension of 1 g and were left undisturbed for 30 minutes. Carbachol (1 mcg/ml) was then added to the bath and a response was recorded. After a ten minute interval the carbachol procedure was repeated. Responses to increasing concentrations of a test compound (0.001 to 10 mcg/ml with one log intervals) were then recorded every 10 minutes. Preparations were washed four times after each response. All doses of compounds were administered in a 0.1 ml volume. Because it has been observed that the magnitude of the second response to carbachol (approximately 10% greater than the first) is close to the maximal response of the tissue, such value was taken as a measure of the sensitivity of a particular segment. Responses to each concentration of the test compound were expressed in terms of percentage of the second response to carbachol and the ED50 (dose producing a response 50% that of carbachol) was calculated graphically.
Activity was scored according to the following scale: […]

rat colon = assay: Cascade assay: rat colon; type: cell-based; settings: in vitro, smooth muscle stimulant ED50 scored
Method: (§1) (A) effects on the rat stomach, rat colon, chick rectum, and rabbit aorta in vitro (cascade assay);
(§2) The smooth muscle stimulant effects of test compounds were determined simultaneously in four different tissues that are known to be reactive to naturally occurring prostaglandins. Segments of rat stomach fundus, rat colon, chick rectum and rabbit aortic strip were obtained as described by: Vane, J. R., Brit. J. Pharmacol., 12: 344 (1957); Regoli, D. and Vane, J. R., Brit. J. Pharmacol., 23: 351 (1964); Mann, M. and West, G. B., Brit. J. Pharmacol., 5: 173 (1950); and Furchgott, R. F. and Bhadrakom, R., J. Pharmacol. Exper. Ther., 108: 129 (1953). One end of each preparation was tied to the bottom of a 10 ml tissue chamber and the other to a force displacement transducer (Grass FT-03) for continuous tension recording. The stomach, colon, and rectum segments were stretched to an initial tension of 1 g, while the aortic strip was subjected to 4 g. All preparations were left undisturbed for 1 hour prior to testing. […]
(§3) Test compounds were diluted from stock solutions so as to administer quantities ranging from 0.0001 to 100,000 ng in a volume of 0.5 ml. […] Maximal increases in tension after each dose were measured and the results were used to plot dose-response curves. […]
(§4) Activity in each tissue was scored according to the following scale: […]

chick rectum = assay: Cascade assay: chick rectum; type: cell-based; settings: in vitro, smooth muscle stimulant ED50 scored
Method: as §1, §2, §3, §4

rabbit aortic strip = assay: Cascade assay: rabbit aortic strip; type: cell-based; settings: in vitro, smooth muscle stimulant ED50 scored
Method: as §1, §2, §3, §4

rat = assay: Effects on gastric secretion in the rat; type: in vivo; settings: pylorus ligated, 1.5 mg/kg s.c. twice (total 3.0 mg/kg), 4 hours
Method: (F) effect on gastric secretion in the rat;
A procedure based on that described by Lipman, W. (J. Pharm. Pharmacol., 21: 335 [1968]) was used to assess the influence of test compounds on gastric secretion. Rats of one sex weighing 150 to 200 g were randomly divided into groups of six animals each and fasted for 48 hours previous to the experiments, water being available ad libitum. The animals were anesthetized with ether, the abdomen opened through a midline incision, and the pylorus ligated. Test compounds were diluted from stock solution so as to administer a dose of 1.5 mg/kg in a volume equivalent to 1 ml/kg. Subcutaneous injections were applied immediately after surgery and again 2 hours later, so that a total dose of 3.0 mg/kg was administered. Dilutions were made with phosphate buffer (pH 7.38) as recommended by Lee et al. (Prostaglandins, 3: 29 [1973]) in order to insure adequate stability of drugs at the subcutaneous depot. […]
Four hours after pyllric ligation the animals were killed with ether, the cardias ligated, and the stomachs removed. The volume of gastric secretion was measured and the contents centrifuged at 5000 rpm for 10 minutes. […]
Volume and total acid values of the treated group were compared with those of the controls […]. Antisecretory activity was scored according to the following scale: […]

human platelet [2] = assay: Inhibition of human platelet aggregation in vitro; type: cell-based; settings: human platelet rich plasma, collagen-induced
Method: (E) effect on human platelet aggregation in vitro; and
The ability of test compounds to inhibit platelet aggregation was determined by a modification of the turbidometric technique of Born, G. V. R. (Nature, 194: 927 [1962]). Blood was collected from human volunteers, who had not ingested aspirin or aspirin-containing products within the preceding two weeks, in heparinized containers and was allowed to settle for one (1) hour. The platelet rich plasma (prp) supernates were collected and pooled. Siliconized glassware was used throughout.
In a representative assay, 1.9 ml of PRP and 0.2 ml of test compound at the appropriate concentration ([…]), or 0.2 ml of distilled water (control procedure) were placed in sample cuvettes. The cuvettes were placed in a 37° C. incubation block for 15 minutes, and then in a spectrophotometer linked to a strip chart recorder. After 30-60 seconds, 0.2 ml of a solution, prepared by diluting a calf-skin collagen solution 1:9 with Tyrodes' Solution, was added to each cuvette. Platelet aggregation was evidenced by a decrease in optical density.
An ED50 value was then determined graphically.

hypertensive rat = assay: Effects on blood pressure in the hypertensive rat; type: in vivo; design: key: 0: Not significant at any time interval; 1: Significant at one time interval; 2: Significant at two time intervals; settings: 1 mg/kg intraperitoneal; 2, 4, 6 and 9 hours
Method: (I) effect on systolic blood pressure in the hypertensive rat
The acute anithypertensive activity of test compounds was determined in rats made hypertensive by the procedure of Grollman (Proc. Soc. Exper Biol. Med., 57: 102 [1944]). Female rats weighing between 60 and 100 g were anesthetized with ether, the right kidney approached through a flank retroperitoneal incision, decapsulated and tied with a figure-of-eight-ligature. The animals were left to recover and two weeks later were again anesthetized and the contralateral kidney removed. […]
Blood pressure was measured in the tail with an inflatable occluding cuff placed at the base of the extremity and a pulse detector located distally. The cuff was inflated to approximately 300 mmHg and was slowly deflated until pulsations appeared, indicating the level of systolic pressure; diastolic pressure was not recorded by this procedure. […] In all cases, three pressure readings were obtained in succession and mean values were calculated thereof.
Experiments were carried out in groups of five hypertensive rats in which systolic pressure was determined immediately before and 2, 4, 6 and 9 hours after intraperiotoneal administration of the test compound at a dose of 1 mg/kg. Drugs were diluted from stock solutions with phosphate buffer (Lee et al., Prostaglandins, 3: 29 [1973]), so as to inject this quantity in a volume of 1 ml/kg. […]

rat stomach fundus = assay: Cascade assay: rat stomach fundus; type: cell-based; settings: in vitro, smooth muscle stimulant ED50 scored
Method: as §1, §2, §3, §4

[3] = system: motor pathways in the central nervous system; settings: cited from earlier work
[4] = system: smooth muscle of the vas deferens; settings: cited from earlier work
tracheal smooth muscle = settings: in vitro, most mammalian respiratory tracts; cited from earlier work
growth hormone = settings: rats; cited from earlier work
human platelet [5] = settings: compared with compounds of Formula IV; cited from earlier work
blood platelets = settings: in vitro; cited from earlier work
man = settings: cited from earlier work

Question: Which “steroidogenesis in the adrenal glands” value (adrenal glands) does the source give for `CCCCC[C@H](O)/C=C/[C@@H]1[C@@H](CCCCCCC(=O)O)[C@@H](O)C[C@H]1O` [PGF1α] here?
Answer: stimulate stereoidogenesis in the adrenal glands

Question: And the luteolytic effect [1]?
Answer: act as luteolytic factors

Question: Which “Rat Uterus: activity value (ED50)” value (rat uterus) does the source give for `COC(=O)CCCc1ccccc1CC1C(=O)CCC1/C=C(\c1ccccc1)[C@H](C)O` (stereo partly drawn) [Example 4, Methyl 5,6,17,18,19,20-hexanor-4,7,-inter-o-phenylene-14-phenyl-15S-hydroxy-9-oxo-ent-prost-13E-en-1-oate] here?
Answer: 0 (>10)

Question: And the “Cascade, Colon: activity value (ED50)” value (rat colon)?
Answer: 0 (>10000)

Question: What about the “Cascade, Rectum: activity value (ED50)” value (chick rectum) of the same compound?
Answer: 0 (>10000)

Question: And the “Cascade, Aorta: activity value (ED50)” value (rabbit aortic strip)?
Answer: 0 (>10000)

Question: And the “Gastric Secretion: activity value (% decrease in acidity)” value (rat)?
Answer: 0 (<26)

Question: What about the “Platelet Aggregation: activity value (ED50)” value (human platelet [2]) of the same compound?
Answer: 1 (>0.1 and ≤1.0)

Question: What about the “Blood Pressure Hypertensive Rat: activity value” (hypertensive rat) of the same compound?
Answer: 0

Question: And the “Cascade, Stomache: activity value (ED50)” value (rat stomach fundus)?
Answer: 0 (>10000)

Question: With `CCCCC[C@H](O)/C=C/[C@H]1[C@H](O)CC(=O)[C@@H]1CCCCCCC(=O)O` [PGE1] as the compound, how does the “steroidogenesis in the adrenal glands” value (adrenal glands) read?
Answer: stimulate stereoidogenesis in the adrenal glands

Question: And the “transmission along motor pathways in the central nervous system” value [3]?
Answer: retards

Question: What about the “effect on smooth muscle of the vas deferens” value [4] of the same compound?
Answer: contracts the smooth muscle of the vas deferens

Question: And the “effect on tracheal smooth muscle” value (tracheal smooth muscle)?
Answer: relax

Question: And the “release of the growth hormone” value (growth hormone)?
Answer: increase the release of the growth hormone

Question: And the “inhibition of human platelet aggregation, comparison with natural prostaglandin” value (human platelet [5])?
Answer: displays similar activity

Question: And the “aggregation of blood platelets” value (blood platelets)?
Answer: inhibits aggregation of blood platelets in vitro

Question: For `CCCCC[C@H](O)/C=C/[C@H]1C=CC(=O)[C@@H]1CCCCCCC(=O)O` [PGA1], which “synthesis of the growth hormone” value (growth hormone) is on record?
Answer: increases its synthesis

Question: And the “gastric secretion, man” value (man)?
Answer: exhibits similar activity in man
